Measured values reported in patent EP1007530B1, “6-O-SUBSTITUTED ERYTHROMYCIN COMPOUNDS AND METHOD FOR MAKING SAME” (ABBOTT LABORATORIES, priority 1996, dated 1997).

Legend:
Assay in all cases: In vitro assay of antibacterial activity (agar dilution MIC)
Format in all cases: cell-based
[1] = test system: Candida albicans CCH 442; details: BHI agar, 35-37 °C, 20 to 24 hours, unit assumed
Procedure: (§1) Representative compounds of the present invention were assayed in vitro for antibacterial activity as follows: Twelve petri dishes containing successive aqueous dilutions of the test compound mixed with 10 mL of sterilized Brain Heart Infusion (BHI) agar (Difco 0418-01-5) were prepared. Each plate was inoculated with 1:100 (or 1:10 for slow-growing strains, such as Micrococcus and Streptococcus) dilutions of up to 32 different microorganisms, using a Steers replicator block. The inoculated plates were incubated at 35-37 °C for 20 to 24 hours, In addition, a control plate, using BHI agar containing no test compound, was prepared and incubated at the beginning and end of each test.
(§2) An additional plate containing a compound having known susceptibility patterns for the organisms being tested and belonging to the same antibiotic class as the test compound was also prepared and incubated as a further control, as well as to provide test-to-test comparability. Erythromycin A was used for this purpose.
(§3) After incubation, each plate was visually inspected. The minimum inhibitory concentration (MIC) was defined as the lowest concentration of drug yielding no growth, a slight haze, or sparsely isolated colonies on the inoculum spot as compared to the growth control. […]

[2] = test system: Enterobacter aerogenes ATCC 13048; details: BHI agar, 35-37 °C, 20 to 24 hours, unit assumed
Procedure: as §1, §2, §3

[3] = test system: Enterococcus faecium ATCC 8043; details: BHI agar, 35-37 °C, 20 to 24 hours, unit assumed
Procedure: as §1, §2, §3

[4] = test system: Escherichia coli DC-2; details: BHI agar, 35-37 °C, 20 to 24 hours, unit assumed
Procedure: as §1, §2, §3

[5] = test system: Escherichia coli H560; details: BHI agar, 35-37 °C, 20 to 24 hours, unit assumed
Procedure: as §1, §2, §3

[6] = test system: Escherichia coli JUHL; details: BHI agar, 35-37 °C, 20 to 24 hours, in µg/mL (unit assumed)
Procedure: as §1, §2, §3

[7] = test system: Escherichia coli KNK 437; details: BHI agar, 35-37 °C, 20 to 24 hours, unit assumed
Procedure: as §1, §2, §3

[8] = test system: Escherichia coli SS; details: BHI agar, 35-37 °C, 20 to 24 hours, unit assumed
Procedure: as §1, §2, §3

[9] = test system: Klebsiella pneumoniae ATCC 8045; details: BHI agar, 35-37 °C, 20 to 24 hours, unit assumed
Procedure: as §1, §2, §3

[10] = test system: Micrococcus luteus ATCC 4698; details: BHI agar, 35-37 °C, 20 to 24 hours, unit assumed
Procedure: as §1, §2, §3

[11] = test system: Micrococcus luteus ATCC 9341; details: BHI agar, 35-37 °C, 20 to 24 hours, unit assumed
Procedure: as §1, §2, §3

[12] = test system: Mycobacterium smegmatis ATCC 114; details: BHI agar, 35-37 °C, 20 to 24 hours, unit assumed
Procedure: as §1, §2, §3

[13] = test system: Providencia struartii CMX 640; details: BHI agar, 35-37 °C, 20 to 24 hours, unit assumed
Procedure: as §1, §2, §3

[14] = test system: Pseudomonas aeruginosa 5007; details: BHI agar, 35-37 °C, 20 to 24 hours, unit assumed
Procedure: as §1, §2, §3

[15] = test system: Pseudomonas aeruginosa BMH10; details: BHI agar, 35-37 °C, 20 to 24 hours, in µg/mL (unit assumed)
Procedure: as §1, §2, §3

[16] = test system: Pseudomonas aeruginosa DPHD-2862; details: BHI agar, 35-37 °C, 20 to 24 hours, unit assumed
Procedure: as §1, §2, §3

[17] = test system: Pseudomonas aeruginosa DPHD-5263; details: BHI agar, 35-37 °C, 20 to 24 hours, in µg/mL (unit assumed)
Procedure: as §1, §2, §3

[18] = test system: Pseudomonas aeruginosa K799/61; details: BHI agar, 35-37 °C, 20 to 24 hours, unit assumed
Procedure: as §1, §2, §3

[19] = test system: Pseudomonas aeruginosa K799/WT; details: BHI agar, 35-37 °C, 20 to 24 hours, unit assumed
Procedure: as §1, §2, §3

[20] = test system: Pseudomonas capacia 2961; details: BHI agar, 35-37 °C, 20 to 24 hours, in µg/mL (unit assumed)
Procedure: as §1, §2, §3

[21] = test system: Staphylococcus aureus 1775; details: BHI agar, 35-37 °C, 20 to 24 hours, unit assumed
Procedure: as §1, §2, §3

[22] = test system: Staphylococcus aureus A-5278; details: BHI agar, 35-37 °C, 20 to 24 hours, unit assumed
Procedure: as §1, §2, §3

[23] = test system: Staphylococcus aureus ATCC 6538P; details: BHI agar, 35-37 °C, 20 to 24 hours, unit assumed
Procedure: as §1, §2, §3

[24] = test system: Staphylococcus aureus CMX 553; details: BHI agar, 35-37 °C, 20 to 24 hours, unit assumed
Procedure: as §1, §2, §3

[25] = test system: Staphylococcus aureus CMX 642A; details: BHI agar, 35-37 °C, 20 to 24 hours, unit assumed
Procedure: as §1, §2, §3

[26] = test system: Staphylococcus aureus NCTC10649M; details: BHI agar, 35-37 °C, 20 to 24 hours, unit assumed
Procedure: as §1, §2, §3

[27] = test system: Staphylococcus epidermidis 3519; details: BHI agar, 35-37 °C, 20 to 24 hours, unit assumed
Procedure: as §1, §2, §3

[28] = test system: Streptococcus agalactiae CMX 508; details: BHI agar, 35-37 °C, 20 to 24 hours, unit assumed
Procedure: as §1, §2, §3

[29] = test system: Streptococcus bovis A-5169; details: BHI agar, 35-37 °C, 20 to 24 hours, unit assumed
Procedure: as §1, §2, §3

[30] = test system: Streptococcus pyogenes 930; details: BHI agar, 35-37 °C, 20 to 24 hours, unit assumed
Procedure: as §1, §2, §3

[31] = test system: Streptococcus pyogenes EES61; details: BHI agar, 35-37 °C, 20 to 24 hours, unit assumed
Procedure: as §1, §2, §3

[32] = test system: Actinetobacter calcoaceticus CMX 669; details: BHI agar, 35-37 °C, 20 to 24 hours, unit assumed
Procedure: as §1
(§4) An additional plate containing a compound having known susceptibility patterns for the organisms being tested and belonging to the same antibiotic class as the test compound was also prepared and incubated as a further control, as well as to provide test-to-test comparability.
as §3

[33] = test system: Staphylococcus aureus A5177; details: BHI agar, 35-37 °C, 20 to 24 hours, unit assumed
Procedure: as §1, §4, §3

[34] = test system: Streptococcus pyogenes PIU 2548; details: BHI agar, 35-37 °C, 20 to 24 hours, unit assumed
Procedure: as §1, §2, §3

C#CCO[C@]1(C)C[C@@H](C)C(=O)[C@H](C)[C@@H](O)[C@](C)(O)[C@@H](CC)OC(=O)[C@H](C)[C@@H](O[C@H]2C[C@@](C)(OC)[C@@H](O)[C@H](C)O2)[C@H](C)[C@H]1O[C@@H]1O[C@H](C)C[C@H](N(C)C)[C@H]1O [Example 10, Compound of Formula (X): X is =O, R is -CH2-C≡CH]
MIC [1]: > 100 µg/mL
MIC [2]: > 100 µg/mL
MIC [3]: 0.1 µg/mL
MIC [4]: 100 µg/mL
MIC [5]: 25 µg/mL
MIC [6]: 50
MIC [7]: > 100 µg/mL
MIC [8]: 0.78 µg/mL
MIC [9]: > 100 µg/mL
MIC [10]: 0.78 µg/mL
MIC [11]: 0.05 µg/mL
MIC [12]: 0.39 µg/mL
MIC [13]: > 100 µg/mL
MIC [14]: > 100 µg/mL
MIC [15]: 100
MIC [16]: > 100 µg/mL
MIC [17]: > 100
MIC [18]: 3.1 µg/mL
MIC [19]: > 100 µg/mL
MIC [20]: >100
MIC [21]: > 100 µg/mL
MIC [22]: > 100 µg/mL
MIC [23]: 0.2 µg/mL
MIC [24]: 0.39 µg/mL
MIC [25]: 0.39 µg/mL
MIC [26]: 0.39 µg/mL
MIC [27]: 0.2 µg/mL
MIC [28]: 0.05 µg/mL
MIC [29]: 0.01 µg/mL
MIC [30]: > 100 µg/mL
MIC [31]: 0.01 µg/mL
MIC [32]: 12.5 µg/mL
MIC [33]: 6.2 µg/mL

CC[C@H]1OC(=O)[C@H](C)[C@@H](O[C@H]2C[C@@](C)(OC)[C@@H](O)[C@H](C)O2)[C@H](C)[C@@H](O[C@@H]2O[C@H](C)C[C@H](N(C)C)[C@H]2O)[C@](C)(OCC(O)Cn2ccnc2)C[C@@H](C)C(=O)[C@H](C)[C@@H](O)[C@]1(C)O (some centres unmarked) [Example 5, Compound of Formula (X): X is =O, R is 2-hydroxy-3-(imidazol-1-yl)propyl]
MIC [1]: > 100 µg/mL
MIC [2]: 100 µg/mL
MIC [3]: 0.39 µg/mL
MIC [4]: 50 µg/mL
MIC [5]: 50 µg/mL
MIC [6]: 25
MIC [7]: 50 µg/mL
MIC [8]: 0.78 µg/mL
MIC [9]: 100 µg/mL
MIC [10]: 3.1 µg/mL
MIC [11]: 0.1 µg/mL
MIC [12]: 1.56 µg/mL
MIC [13]: > 100 µg/mL
MIC [14]: > 100 µg/mL
MIC [15]: 100
MIC [16]: > 100 µg/mL
MIC [17]: > 100
MIC [18]: 1.56 µg/mL
MIC [19]: > 100 µg/mL
MIC [20]: > 100
MIC [21]: > 100 µg/mL
MIC [22]: > 100 µg/mL
MIC [23]: 0.78 µg/mL
MIC [24]: 0.78 µg/mL
MIC [25]: 0.78 µg/mL
MIC [26]: 0.78 µg/mL
MIC [27]: 1.56 µg/mL
MIC [28]: 0.1 µg/mL
MIC [29]: 0.05 µg/mL
MIC [30]: > 100 µg/mL
MIC [31]: 0.05 µg/mL
MIC [32]: 12.5 µg/mL
MIC [33]: 12.5 µg/mL

CC[C@H]1OC(=O)[C@H](C)[C@@H](O[C@H]2C[C@@](C)(OC)[C@@H](O)[C@H](C)O2)[C@H](C)[C@@H](O[C@@H]2O[C@H](C)C[C@H](N(C)C)[C@H]2O)[C@](C)(OCC=NO)C[C@@H](C)C(=O)[C@H](C)[C@@H](O)[C@]1(C)O [Example 12, Compound of Formula (X): X is =O, R is -CH2-CH=N-OH]
MIC [1]: > 100 µg/mL
MIC [2]: > 100 µg/mL
MIC [3]: 0.1 µg/mL
MIC [4]: > 100 µg/mL
MIC [5]: 25 µg/mL
MIC [6]: 50
MIC [7]: 100 µg/mL
MIC [8]: 0.78 µg/mL
MIC [10]: 0.78 µg/mL
MIC [11]: 0.05 µg/mL
MIC [12]: 0.78 µg/mL
MIC [13]: > 100 µg/mL
MIC [14]: > 100 µg/mL
MIC [15]: > 100
MIC [16]: > 100 µg/mL
MIC [17]: > 100
MIC [18]: 1.56 µg/mL
MIC [19]: > 100 µg/mL
MIC [20]: > 100
MIC [21]: > 100 µg/mL
MIC [22]: > 100 µg/mL
MIC [23]: 0.39 µg/mL
MIC [24]: 0.39 µg/mL
MIC [25]: 0.39 µg/mL
MIC [26]: 0.39 µg/mL
MIC [27]: 0.39 µg/mL
MIC [28]: 0.05 µg/mL
MIC [29]: 0.05 µg/mL
MIC [30]: > 100 µg/mL
MIC [31]: 0.05 µg/mL
MIC [34]: 12.5 µg/mL
MIC [32]: 12.5 µg/mL

CCCO[C@]1(C)C[C@@H](C)C(=O)[C@H](C)[C@@H](O)[C@](C)(O)[C@@H](CC)OC(=O)[C@H](C)[C@@H](O[C@H]2C[C@@](C)(OC)[C@@H](O)[C@H](C)O2)[C@H](C)[C@H]1O[C@@H]1O[C@H](C)C[C@H](N(C)C)[C@H]1O [Example 2, Compound of Formula (X): X is =O, R is propyl]
MIC [1]: 0.1 µg/mL
MIC [2]: > 100 µg/mL
MIC [3]: 3.1 µg/mL
MIC [4]: > 100 µg/mL
MIC [5]: > 100 µg/mL
MIC [6]: >100
MIC [7]: > 100 µg/mL
MIC [8]: 1.56 µg/mL
MIC [9]: > 100 µg/mL
MIC [10]: 3.1 µg/mL
MIC [11]: 0.2 µg/mL
MIC [13]: > 100 µg/mL
MIC [14]: > 100 µg/mL
MIC [15]: >100
MIC [16]: > 100 µg/mL
MIC [17]: >100
MIC [18]: > 100 µg/mL
MIC [19]: 6.2 µg/mL
MIC [20]: 50
MIC [21]: > 100 µg/mL
MIC [22]: > 100 µg/mL
MIC [23]: 3.1 µg/mL
MIC [24]: 3.1 µg/mL
MIC [25]: 12.5 µg/mL
MIC [26]: 6.2 µg/mL
MIC [27]: 1.56 µg/mL
MIC [28]: 0.2 µg/mL
MIC [29]: 0.05 µg/mL
MIC [30]: > 100 µg/mL
MIC [31]: 0.05 µg/mL
MIC [34]: 6.2 µg/mL
MIC [32]: > 100 µg/mL
MIC [33]: 25 µg/mL
